Consider seven molecules from publication PMC5587682 (Scientific Reports, 2017).

Residues, ends and D or L forms follow the SMILES beside them.

The experiment concerns A/Parma/24/09 H1N1 oseltamivir-resistant virus. It counts as cell-based, Influenza A virus. To be noted: turkey erythrocytes.
`C[C@H](NC(=O)[C@H](Cc1c[nH]c2ccccc12)NC(=O)[C@H](CC(=O)O)NC(=O)[C@H](C)NC(=O)[C@@H](NC(=O)[C@H](CO)NC(=O)[C@H](CCC(=O)O)NC(=O)CNC(=O)[C@H](CC(N)=O)NC(=O)[C@@H](N)[C@@H](C)O)[C@@H](C)O)C(=O)N[C@@H](CCCCN)C(=O)N[C@@H](CC(N)=O)C(N)=O` [Peptide 6, TNGESTADWAKN] (H-TNGESTADWAKN-NH2; N-terminus and C-terminus assumed) had an HI titer of 1.5 nM.
As for `C[C@@H](O)[C@H](NC(=O)[C@H](CCC(=O)O)NC(=O)[C@H](CO)NC(=O)[C@@H](N)CCCCN)C(=O)N[C@@H](CCCCN)C(=O)N[C@@H](CC(N)=O)C(=O)O` [Peptide 8, KSETKN] (H-KSETKN-OH; N-terminus and C-terminus assumed), the HI titer is recorded as 0.3 nM.
The value for “SKHSSLDCVLRPTEGY [Peptide 12, bLf C-lobe fragment 418–433]” was 0.1 nM; that for `CC(C)C[C@H](NC(=O)[C@H](CO)NC(=O)[C@H](CO)NC(=O)[C@H](Cc1c[nH]cn1)NC(=O)[C@H](CCCCN)NC(=O)[C@@H](N)CO)C(=O)N[C@@H](CC(=O)O)C(=O)N[C@@H](CS)C(=O)O` [Peptide 16, SKHSSLDC] (H-SKHSSLDC-OH; N-terminus and C-terminus assumed) was 12 nM; that for `CC(C)C[C@H](NC(=O)[C@@H](NC(=O)[C@H](CS)NC(=O)[C@H](CC(=O)O)NC(=O)[C@H](CC(C)C)NC(=O)[C@@H](N)CO)C(C)C)C(=O)N[C@@H](CCCNC(=N)N)C(=O)N1CCC[C@H]1C(N)=O` [Peptide 13, SLDCVLRP] (H-SLDCVLRP-NH2) was 0.00015 nM.
With “NRKSSKHSSLDCVLRPTEGY [Peptide 10, bLf C-lobe fragment 414–433]”, the HI titer is 6 nM.
Consider “NRKSSKHSSLDCVLRP [Peptide 11, bLf C-lobe fragment 414–429]”, for which the HI titer was 12 nM.
